For orientation: IC50 means the concentration that inhibits the measured activity by half. A low value points to greater potency.

In this experiment the target is human PDE10A (Homo sapiens (Human), UniProt Q9Y233). As to the kind of experiment: human PDE10A full length Scintillation Proximity Assay (SPA). The experiment is classed as biochemical. The settings on record: 50 nM cGMP and 50 nM [3H]-cGMP, 20 minutes at room temperature. As for the experimental part: The following test was carried out in order to determine the activity of the compounds of the present invention. PDE10 activity of the compounds of the present invention was determined using a Scintillation Proximity Assay (SPA)-based method similar to the one previously described (Fawcett, L. et al., ProcNatl Acad Sci USA (2000) 97(7):3702-3707).
Sequence of human PDE10A (Q9Y233 other isoform, or with tags, fused parts or gaps): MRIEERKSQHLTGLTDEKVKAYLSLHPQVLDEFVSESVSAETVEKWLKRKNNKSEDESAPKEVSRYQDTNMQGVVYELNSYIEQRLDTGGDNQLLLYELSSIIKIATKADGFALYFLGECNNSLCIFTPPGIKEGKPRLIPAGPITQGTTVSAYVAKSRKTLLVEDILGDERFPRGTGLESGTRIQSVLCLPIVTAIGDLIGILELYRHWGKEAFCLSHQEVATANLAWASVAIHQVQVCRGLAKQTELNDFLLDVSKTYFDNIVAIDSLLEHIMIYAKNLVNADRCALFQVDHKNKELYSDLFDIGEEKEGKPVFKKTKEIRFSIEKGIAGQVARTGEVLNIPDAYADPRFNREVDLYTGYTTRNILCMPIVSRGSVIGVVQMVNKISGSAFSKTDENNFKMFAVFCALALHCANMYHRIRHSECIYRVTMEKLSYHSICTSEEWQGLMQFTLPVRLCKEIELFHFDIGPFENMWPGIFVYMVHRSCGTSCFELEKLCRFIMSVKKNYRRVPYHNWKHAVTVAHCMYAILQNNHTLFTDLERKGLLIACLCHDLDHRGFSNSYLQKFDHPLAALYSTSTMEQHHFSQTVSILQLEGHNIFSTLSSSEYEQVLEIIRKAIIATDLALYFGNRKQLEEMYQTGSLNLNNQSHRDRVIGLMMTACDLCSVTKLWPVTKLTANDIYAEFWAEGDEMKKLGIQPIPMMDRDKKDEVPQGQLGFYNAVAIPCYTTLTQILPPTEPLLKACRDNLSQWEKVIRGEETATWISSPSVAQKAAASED
The human PDE10A full length assay was performed in 96-well micro titer plates. The reaction mixture of 50 μl contained 20 mM HEPES pH=7.5/10 mM MgCl2/0.05 mg/ml BSA (Sigma cat. # A-7906), 50 nM cGMP (Sigma, cat. # G6129) and 50 nM [3H]-cGMP (GE Healthcare, cat. # TRK392 S. A. 13.2 Ci/mmol), 3.75 ng/well PDE10A enzyme (Enzo Life Science, Lausen, Switzerland cat # SE-534) with or without a specific test compound. A range of concentrations of the potential inhibitor was used to generate data for calculating the concentration of inhibitor resulting in 50% of the effect (e.g. IC50, the concentration of the competitor inhibiting PDE10A activity by 50%). Non-specific activity was tested without the enzyme. The reaction was initiated by the addition of the substrate solution (cGMP and [3H]-cGMP) and allowed to progress for 20 minutes at room temperature. The reaction was terminated by adding 25 μl of YSi-SPA scintillation beads (GE Healthcare, cat. # RPNQ0150) in 18 mM zinc sulphate solution (stop reagent). After 1 h under shaking, the plate was centrifuged one minute at 170 g to allow beads to settle. Afterwards, radioactive counts were measured on a Perkin Elmer TopCount Scintillation plate reader.
For orientation: In a scintillation proximity assay essentially only radioactivity close to the scintillant gives light.
In turn, `Cn1cc(-c2ccccc2)nc1COc1ccc2nc(C3CC3)cn2n1` [Example 37, 2-Cyclopropyl-6-((1-methyl-4-phenyl-1H-imidazol-2-yl)methoxy)imidazo[1,2-b]pyridazine] showed an IC50 of 169 nM. Under `Cc1nc2ccc(CCc3nc(-c4cncnc4)cn3C)nn2c1C` [Example 26, 2,3-Dimethyl-6-(2-(1-methyl-4-(pyrimidin-5-yl)-1H-imidazol-2-yl)ethyl)imidazo[1,2-b]pyridazine] stands 98.5 nM; under `Cc1nc2ccc(CCc3nc(-c4ccccc4)nn3C)nn2c1C` [Example 21, 2,3-Dimethyl-6-(2-(1-methyl-3-phenyl-1H-1,2,4-triazol-5-yl)ethyl)imidazo[1,2-b]pyridazine], 27.7 nM. Next, `Cc1nc2c(C)c(C)c(CCc3nc(-c4ccccc4)cn3C)nn2c1C` [Example 14, 2,3,7,8-Tetramethyl-6-(2-(1-methyl-4-phenyl-1H-imidazol-2-yl)ethyl)imidazo[1,2-b]pyridazine]: 10.8 nM; `Cc1c(C(N)=O)nc2ccc(OCc3nc(-c4ccccc4)cn3C)nn12` [Example 39, 3-Methyl-6-((1-methyl-4-phenyl-1H-imidazol-2-yl)methoxy)imidazo[1,2-b]pyridazine-2-carboxamide]: 114 nM.

Compound `Cc1c(C(F)F)nc2ccc(CCc3nc(-c4ccccc4)cn3C)nn12` [Example 19, 2-(Difluoromethyl)-3-methyl-6-(2-(1-methyl-4-phenyl-1H-imidazol-2-yl)ethyl)imidazo[1,2-b]pyridazine] came in with an IC50 of 6.4 nM. In turn, `Cc1nc2ccc(OCc3nc(-c4ccccc4)nn3C)nn2c1C` [Example 33, 2,3-Dimethyl-6-((1-methyl-3-phenyl-1H-1,2,4-triazol-5-yl)methoxy)imidazo[1,2-b]pyridazine] returned an IC50 of 51.6 nM. Under `Cc1nc2ccc(CCc3nc(-c4ccccc4)cn3C)nn2c1CO` [Example 15, (2-Methyl-6-(2-(1-methyl-4-phenyl-1H-imidazol-2-yl)ethyl)imidazo[1,2-b]pyridazin-3-yl)methanol] stands 3.4 nM. `Cc1nc2ccc(CCc3nc(-c4cnccn4)cn3C)nn2c1C` [Example 29, 2,3-Dimethyl-6-(2-(1-methyl-4-(pyrazin-2-yl)-1H-imidazol-2-yl)ethyl)imidazo[1,2-b]pyridazine] registered an IC50 of 33.2 nM.

On to `COc1cc(OCc2nc(-c3ccccc3)cn2C)nn2c(C)c(C(F)(F)F)nc12` [Example 41, 8-Methoxy-3-methyl-6-((1-methyl-4-phenyl-1H-imidazol-2-yl)methoxy)-2-(trifluoromethyl)imidazo[1,2-b]pyridazine], for which the IC50 turned out to be 11.8 nM. Next, `Cc1nc2ccc(CCc3nc(-c4ncccn4)cn3C)nn2c1C` [Example 23, 2,3-Dimethyl-6-(2-(1-methyl-4-(pyrimidin-2-yl)-1H-imidazol-2-yl)ethyl)imidazo[1,2-b]pyridazine]: 9.2 nM; `CCc1nc2ccc(OCc3nc(-c4ccccc4)cn3C)nn2c1C` [Example 35, 2-Ethyl-3-methyl-6-((1-methyl-4-phenyl-1H-imidazol-2-yl)methoxy)imidazo[1,2-b]pyridazine]: 264 nM; `Cc1c(C(F)(F)F)nc2ccc(OCc3nc(-c4ccccc4)cn3C)nn12` [Example 36, 3-Methyl-6-((1-methyl-4-phenyl-1H-imidazol-2-yl)methoxy)-2-(trifluoromethyl)imidazo[1,2-b]pyridazine]: 34.6 nM.

`Cc1nc2ccc(C#Cc3nc(-c4ccccc4)cn3C)nn2c1CO` [Example 3, (2-Methyl-6-((1-methyl-4-phenyl-1H-imidazol-2-yl)ethynyl)imidazo[1,2-b]pyridazin-3-yl)methanol] gave an IC50 of 1 nM. The compound `Cn1cc(-c2ccccc2)nc1CCc1ccc2nc(C3CC3)c(CO)n2n1` [Example 18, (2-Cyclopropyl-6-(2-(1-methyl-4-phenyl-1H-imidazol-2-yl)ethyl)imidazo[1,2-b]pyridazin-3-yl)methanol] returned an IC50 of 656 nM.

`Cc1c(C(F)(F)F)nc2ccc(CCc3nc(-c4ccccc4)cn3C)nn12` [Example 17, 3-Methyl-6-(2-(1-methyl-4-phenyl-1H-imidazol-2-yl)ethyl)-2-(trifluoromethyl)imidazo[1,2-b]pyridazine] yielded an IC50 of 20.5 nM. Next, `Cn1cc(-c2ccccc2)nc1COc1ccc2nc3c(n2n1)CCC3` [Example 44, 2-[(1-Methyl-4-phenyl-imidazol-2-yl)methoxy]-7,8-dihydro-6H-cyclopenta[1,2]imidazo[3,4-c]pyridazine]: 47 nM. Next, `Cc1nc2ccc(CCc3nc(-c4ccncc4)cn3C)nn2c1C` [Example 25, 2,3-Dimethyl-6-(2-(1-methyl-4-(pyridin-4-yl)-1H-imidazol-2-yl)ethyl)imidazo[1,2-b]pyridazine]: 32.3 nM; `Cc1nc2ccc(CCc3nc(-c4ccccn4)cn3C)nn2c1C` [Example 27, 2,3-Dimethyl-6-(2-(1-methyl-4-(pyridin-2-yl)-1H-imidazol-2-yl)ethyl)imidazo[1,2-b]pyridazine]: 3.3 nM; `Cc1c(C#N)nc2ccc(/C=C/c3nc(-c4ccccc4)cn3C)nn12` [Example 12, (E)-3-methyl-6-(2-(1-methyl-4-phenyl-1H-imidazol-2-yl)vinyl)imidazo[1,2-b]pyridazine-2-carbonitrile]: 13.8 nM.

Take `Cn1cc(-c2ccccc2)nc1C#Cc1ccc2nc(C(F)(F)F)cn2n1` [Example 8, 6-(1-Methyl-4-phenyl-1H-imidazol-2-ylethynyl)-2-trifluoromethyl-imidazo[1,2-b]pyridazine]: half-maximal inhibition (IC50) required 1 nM.

In the case of `Cn1cc(-c2ccccc2)nc1C#Cc1ccc2nc(C3CC3)c(CO)n2n1` [Example 6, (2-Cyclopropyl-6-((1-methyl-4-phenyl-1H-imidazol-2-yl)ethynyl)imidazo[1,2-b]pyridazin-3-yl)methanol], the IC50 is 1.9 nM. Under `CNC(=O)c1cc(CCc2nc(-c3ccccn3)cn2C)nn2c(C)c(C(F)(F)F)nc12` [Example 31, N,3-Dimethyl-6-(2-(1-methyl-4-(pyridin-2-yl)-1H-imidazol-2-yl)ethyl)-2-(trifluoromethyl)imidazo[1,2-b]pyridazine-8-carboxamide] stands 8 nM; under `Cc1nc2c(C)c(C)c(OCc3nc(-c4ccccc4)cn3C)nn2c1C` [Example 34, 2,3,7,8-Tetramethyl-6-((1-methyl-4-phenyl-1H-imidazol-2-yl)methoxy)imidazo[1,2-b]pyridazine], 1.7 nM; under `Cc1nc2ccc(/C=C/c3nc(-c4ccccc4)nn3C)nn2c1C` [Example 11, (E)-2,3-Dimethyl-6-(2-(1-methyl-3-phenyl-1H-1,2,4-triazol-5-yl)vinyl)imidazo[1,2-b]pyridazine], 1.3 nM. Regarding `Cc1c(C#N)nc2ccc(CCc3nc(-c4ccccc4)cn3C)nn12` [Example 22, 3-Methyl-6-[2-(1-methyl-4-phenyl-1H-imidazol-2-yl)-ethyl]-imidazo[1,2-b]pyridazine-2-carbonitrile], half-maximal inhibition (IC50) was put at 5.4 nM. The compound `Cc1c(CO)nc2ccc(OCc3nc(-c4ccccc4)cn3C)nn12` [Example 42, (3-Methyl-6-((1-methyl-4-phenyl-1H-imidazol-2-yl)methoxy)imidazo[1,2-b]pyridazin-2-yl)methanol] registered an IC50 of 363 nM.

`Cc1nn2ccc(OCc3nc(-c4ccccc4)cn3C)nc2c1C` [Example 46, 2,3-Dimethyl-5-((1-methyl-4-phenyl-1H-imidazol-2-yl)methoxy)pyrazolo[1,5-a]pyrimidine] yielded an IC50 of 3.4 nM. Next, `Cc1c(C#N)nc2ccc(OCc3nc(-c4ccccc4)cn3C)nn12` [Example 40, 3-Methyl-6-((1-methyl-4-phenyl-1H-imidazol-2-yl)methoxy)imidazo[1,2-b]pyridazine-2-carbonitrile]: 23.7 nM; `Cc1nc2ccc(CCc3nc(-c4cccnc4)cn3C)nn2c1C` [Example 24, 2,3-Dimethyl-6-(2-(1-methyl-4-(pyridin-3-yl)-1H-imidazol-2-yl)ethyl)imidazo[1,2-b]pyridazine]: 1690 nM. As for `Cn1cc(-c2ccccc2)nc1COc1ccc2nc(C(F)(F)F)cn2n1` [Example 45, 6-((1-Methyl-4-phenyl-1H-imidazol-2-yl)methoxy)-2-(trifluoromethyl)imidazo[1,2-b]pyridazine], the IC50 came to 328 nM. Under `Cc1c(C2CC2)nc2ccc(C#Cc3nc(-c4ccccc4)cn3C)nn12` [Example 10, 2-Cyclopropyl-3-methyl-6-((1-methyl-4-phenyl-1H-imidazol-2-yl)ethynyl)imidazo[1,2-b]pyridazine] stands 12 nM; under `Cc1c(C(F)F)nc2ccc(C#Cc3nc(-c4ccccc4)cn3C)nn12` [Example 7, 2-(Difluoromethyl)-3-methyl-6-((1-methyl-4-phenyl-1H-imidazol-2-yl)ethynyl)imidazo[1,2-b]pyridazine], 46.6 nM; under `Cc1cn2nc(OCc3nc(-c4ccccc4)cn3C)ccc2n1` [Example 38, 2-Methyl-6-((1-methyl-4-phenyl-1H-imidazol-2-yl)methoxy)imidazo[1,2-b]pyridazine], 133 nM.

(Values after US10399985B2, “(Hetero)aryl imidazoles/pyrazoles for treatment of neurological disorders” (Hoffmann-La Roche Inc., priority 2014, dated 2019).)
